Measured values from paper PMC9604401 (International Journal of Molecular Sciences, 2022).
Like-named read-outs stand apart in the source and are kept apart here.

Experiments:
[1] = molecular target: MERS nsp1 (Middle East respiratory syndrome-related coronavirus, UniProt K9N7C7); assay: biochemical; assay type: binding
[2] = molecular target: SARS-CoV-1 nsp1 (Severe acute respiratory syndrome coronavirus, UniProt P0C6X7); assay: biochemical; assay type: binding
[3] = molecular target: T1, SARS-CoV-2 nsp1_10-126 (Severe acute respiratory syndrome coronavirus 2, UniProt P0DTD1); assay: Thermal shift assay (TSA) by nanoDSF; assay type: binding; conditions: 4 mM fragment; for TSA effect on unfolding of the protein, in words / TSA Ti ± SD: 2.0% DMSO; for TSA Ti ± SD: nanoDSF, 1.25 mg/mL protein, n = 3, APUC = atypical protein unfolding curve; for TSA ΔTi: Ti (protein-fragment) − Ti (protein-DMSO), control Ti 54.05 °C in 2.0% DMSO; for TSA |ΔTi|-3SD: > 0 regarded as statistically significant
Source text: For TSA, nsp1 in the presence of an equal concentration of DMSO was used as a control to offset the influence of DMSO on the protein. The averaged change of inflection temperature (△Ti) of the protein in the presence of fragments higher than three-fold of standard deviation (|△Ti|-3*SD > 0) was regarded as statistically significant. […] In this regard, TSA may not be suitable yet for the validation of hits against SARS-CoV-2 nsp1_10-126, as we have recently also observed for another SARS-CoV-2 protein, nsp10 [41]. With respect to physicochemical properties, calculated values for fragments are well within the expected range, indicating good starting points for structure-based drug design.
The protein concentration used in this assay was determined by analysing the unfolding curves of SARS-CoV-2 nsp1_10-126 at different concentrations in the presence of 2% DMSO. Fragments dissolved in DMSO (200 mM stocks) were diluted in buffer E supplied with 0.05% Pluronic® F-127 and mixed with nsp1_10-126. The final concentration of fragments was 4 mM containing 2.0% DMSO, while the final protein concentration was 1.25 mg/mL. After centrifugation for 5 min at 6000 rpm, the samples were loaded into Tycho NT.6 capillaries (TY-C001, NanoTemper, München, Germany) with 1.25 mg/mL SARS-CoV-2 nsp1_10-126 in the presence of 2% DMSO as control and measured by the Tycho NT.6 instrument (NanoTemper, München, Germany) in triplicate. The resulting Ti values are presented as means ± SD (n = 3) and the △Ti values for each sample were calculated with the following equation. △Ti = Ti (protein-fragment) − Ti (protein-DMSO)

[4] = molecular target: T1, SARS-CoV-2 nsp1_10-126; assay: Microscale thermophoresis (MST) binding affinity

Sequence of MERS nsp1 (K9N7C7 2-193 limits assumed): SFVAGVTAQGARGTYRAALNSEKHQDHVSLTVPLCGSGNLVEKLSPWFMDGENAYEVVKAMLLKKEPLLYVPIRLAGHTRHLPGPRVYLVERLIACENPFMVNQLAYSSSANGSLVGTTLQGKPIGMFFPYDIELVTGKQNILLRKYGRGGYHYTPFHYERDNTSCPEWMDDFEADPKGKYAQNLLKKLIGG

SMILES	Kd [1] [mM]	Kd [2] [mM]	TSA effect on unfolding of the protein, in words [3]	TSA Ti ± SD [3]	Kd [4] [mM]	MERS nsp1 MST, Kd [1]	Cross-binding to SARS-CoV-1 nsp1 by MST, in words [2]	SARS-CoV-1 nsp1 MST, Kd [2]	TSA ΔTi [3] [°C]	Kd ([4]; read-out: SARS-CoV-2 nsp1 MST, Kd) [mM]	TSA |ΔTi|-3SD [3] [°C]	Cross-binding to MERS nsp1 by MST, in words [1]
CNCc1ccc(-c2cccs2)cc1 [Fragment 5E11]	> 20	12.8 ± 24.1	atypical unfolding curves	APUC	0.48 ± 0.3	–	–	–	–	–	–	–
C[C@H](N)c1ccc(Cl)cc1 [Fragment 7H2]	–	–	Destabilisation effects	53.55 ± 0.25 °C	> 20	n.i	no binding	n.i.	−0.50	> 20	–	–
OCCNCc1ccccc1 [Fragment 8E6]	> 20	> 20	Destabilisation effects	52.72 ± 0.22 °C	8.32 ± 3.32	–	–	–	−1.33	–	0.67	–
Nc1nc(-c2ccc(O)cc2)cs1 [Fragment 10B6]	4.92 ± 4.19	> 20	Destabilisation effects	51.27 ± 0.15 °C	0.56 ± 0.19	–	–	–	−2.79	–	2.33	moderate binding affinity
CNCc1csc(-c2cccc(Cl)c2)n1 [Fragment 11C6]	–	0.38 ± 0.14	Destabilisation effects	53.78 ± 0.05 °C	1.16 ± 0.22	n.i.	strong cross-binding effects	–	−0.27	–	0.13	–
